Series [1] concerns the target T1, Integrin αvβ3 (vitronectin receptor) (Homo sapiens, UniProt P05106+P06756).
T1 construct: a vitronectin receptor (protein content: 118 µg/ml) purified from the human placenta; from tissue; host or cells: human placenta
As to the kind of experiment: αvβ3 Binding assay (vitronectin-vitronectin receptor binding assay). On the procedure:
Pharmacological Test Example 1: αvβ3 Binding assay
Integrin αvβ3 antagonistic activity of compounds according to the present invention was measured in a vitronectin-vitronectin receptor binding assay system in accordance with the method of Kouns et al. (W. C. Kouns, D. Kirchhofer, P. Hadvary, A. Edenhofer, T. Weller, G. Pfenninger, H. R. Baumgartner, L. K. Jennings and B. Steiner, Blood, 80, 2539-2547 (1992)).
Specifically, a vitronectin receptor (protein content: 118 µg/ml) purified from the human placenta in accordance with the method of Pytela et al. (R. Pytela, M. D. Pierschbacher, S. Argraves, S. Suzuki, and E. Ruoslahti, Method in Enzymology, 144, 475-489 (1987)) was diluted 50 times with TBS (20 mM Tris-HCl, 150 mM NaCl, 1 mM CaCl2, 1 mM MgCl2, pH 7.4), and distributed and coated on wells (50 µl/well) of a plate (Maxisorp, Nunc, 96 well Immuno Plate). The plate was then allowed to stand at 4°C for one day, washed twice with TBS (200 µl/well), and then subjected to blocking with TBS (150 µl/well) containing 1% bovine serum albumin (SIGMA) at 4°C overnight. After washing twice with TBS (200 µl/well), 50 µl of vitronectin (CALBIOCHEM) adjusted to 0.2 µg/ml by the addition of TBS (TBS-Tween) containing 0.01% Tween-20 was mixed with 50 µl of each test compound adjusted to each concentration in wells, and a reaction was allowed to proceed at room temperature for 4 hr. After the completion of the reaction, the wells were washed three times with TBS-Tween. A solution prepared by diluting anti-vitronectin rabbit antiserum (CHEMICON) 500 times with TBS-Tween was added as a primary antibody in an amount of 50 µl/well, and a reaction was allowed to proceed at room temperature for 1.5 hr. After washing three times with 200 µl/well of TBS-Tween, a peroxidase (POD)-labeled anti-rabbit IgG antibody solution (CAPPEL) diluted 500 times with TBS-Tween was added as a secondary antibody in an amount of 50 µl/well, and a reaction was allowed to proceed at room temperature for 1.5 hr. After washing three times with TBS-Tween (200 µl/well), ABTS (2,2'-azino-bis(3-ethylbenzthiazoline-6-sulfonic acid), SIGMA) was adjusted to 1 mg/ml by the addition of a ten-fold diluted POD-buffer (ZYMED), and was added in an amount of 50 µl/well, and a reaction was allowed to proceed for 5 to 10 min. A 0.1 M citric acid buffer (pH 4.3) containing 0.05% NaN3 was added in an amount of 50 µl/well to stop the reaction, followed by the measurement of the absorbance at 415 nm with a microplate reader (MTP 32, Corona Electric) (reference: 675 nm). The total binding was defined as the absorbance after a reaction using 50 µl of TBS-Tween instead of the test compound, and the non-specific binding (100% inhibition) was defined as the absorbance after a reaction using 50 µl of TBS-Tween containing 2 x 10^-3 M RGDS. The inhibition was calculated by the following equation: Inhibition (%) = 100-((absorbance in the presence of test compound - non-specific binding))/((total binding - non-specific binding))× 100 [formula]
IC50 was determined from a primary regression line of the logarithm of each concentration of the test compound and the logarithm of (100 - inhibition)/inhibition.

Series [2] concerns the target GP IIb/IIIa (Homo sapiens, UniProt P05106+P08514). As to the kind of experiment: GP IIb/IIIa antagonistic activity (method of Pharmacological Test 2 in WO 94/21599). The class given is binding. The note with it: read-out: IC50 (GP IIb/IIIa antagonistic activity). On the procedure: GP IIb/IIIa antagonistic activity was measured for compounds according to the present invention. The measurement of the GP IIb/IIIa antagonistic activity was carried out according to the method described in Pharmacological Test 2 in WO 94/21599.

Series [3] has as its system human vascular smooth muscle cells. As to the kind of experiment: Inhibitory activity against adhesion of human vascular smooth muscle cells to vitronectin. It counts as cell-based. The following applies: immobilized human vitronectin. On the procedure: Pharmacological Test Example 3: Inhibitory activity against adhesion of human vascular smooth muscle cells to vitronectin
The adhesion of human vascular smooth muscle cells to immobilized human vitronectin was measured in accordance with the method of Liaw et al. (Liaw L, Almeida M, Hart CE, Schwartz SM, and Giachelli CM, Circulation Research, 74 (2), 214-224 (1994)).
A Dulbecco's phosphate buffer (Dulbecco's PBS(-), Nissui Pharmaceutical Co., Ltd.) solution of human plasma-derived vitronectin (CALBIOCHEM) adjusted to a concentration of 4 µg/ml was first added to wells (50 µl/well) of a microplate (Maxisorp, Nunc), and a reaction for immobilization was allowed to proceed at 4°C overnight. […]
Next, 50 µl of a Dulbecco's modified Eagle's basal medium containing 0.1% of bovine serum albumin with a medicament added thereto was added to the wells of the human vitronectin-coated assay microplate, followed by pre-cultivation under 5% carbon dioxide at 37°C for 10 min. […] The absorbance of the microplate thus obtained was measured at 595 nm. […] The inhibition was calculated by the following equation. IC50 was determined from a primary regression line of the logarithm of each concentration of the test compound and the logarithm of (100 - inhibition)/inhibition. […]

The subject of series [4] is human platelet aggregation. In words: Human platelet aggregation inhibitory activity (method of Pharmacological Test 1 in WO 94/21599). The class given is cell-based. The method, then:
Human platelet aggregation inhibitory activity was measured for compounds according to the present invention. The measurement of the human platelet aggregation inhibitory activity was carried out according to the method described in Pharmacological Test 1 in WO 94/21599.

A short description of series [5]: Oral absorption in rats. It counts as in vivo. The note with it: data not shown.
Where [6] appears, read: vitronectin binding to vitronectin receptor purified from the human placenta; read-out: IC50 (integrin αvβ3 antagonistic activity).
Where [7] appears, read: read-out: IC50 (integrin αvβ3 antagonistic activity); vitronectin binding to vitronectin receptor purified from the human placenta.

SMILES strings stand for the structures. “And” between values parts separate entries of the source, which are not always exact repeats. Equal values may be shown once. Read-outs that look alike come from different tables or passages of the source. Some results are limits rather than exact numbers.

GP IIb/IIIa, sequence (P08514 32-887 limits assumed): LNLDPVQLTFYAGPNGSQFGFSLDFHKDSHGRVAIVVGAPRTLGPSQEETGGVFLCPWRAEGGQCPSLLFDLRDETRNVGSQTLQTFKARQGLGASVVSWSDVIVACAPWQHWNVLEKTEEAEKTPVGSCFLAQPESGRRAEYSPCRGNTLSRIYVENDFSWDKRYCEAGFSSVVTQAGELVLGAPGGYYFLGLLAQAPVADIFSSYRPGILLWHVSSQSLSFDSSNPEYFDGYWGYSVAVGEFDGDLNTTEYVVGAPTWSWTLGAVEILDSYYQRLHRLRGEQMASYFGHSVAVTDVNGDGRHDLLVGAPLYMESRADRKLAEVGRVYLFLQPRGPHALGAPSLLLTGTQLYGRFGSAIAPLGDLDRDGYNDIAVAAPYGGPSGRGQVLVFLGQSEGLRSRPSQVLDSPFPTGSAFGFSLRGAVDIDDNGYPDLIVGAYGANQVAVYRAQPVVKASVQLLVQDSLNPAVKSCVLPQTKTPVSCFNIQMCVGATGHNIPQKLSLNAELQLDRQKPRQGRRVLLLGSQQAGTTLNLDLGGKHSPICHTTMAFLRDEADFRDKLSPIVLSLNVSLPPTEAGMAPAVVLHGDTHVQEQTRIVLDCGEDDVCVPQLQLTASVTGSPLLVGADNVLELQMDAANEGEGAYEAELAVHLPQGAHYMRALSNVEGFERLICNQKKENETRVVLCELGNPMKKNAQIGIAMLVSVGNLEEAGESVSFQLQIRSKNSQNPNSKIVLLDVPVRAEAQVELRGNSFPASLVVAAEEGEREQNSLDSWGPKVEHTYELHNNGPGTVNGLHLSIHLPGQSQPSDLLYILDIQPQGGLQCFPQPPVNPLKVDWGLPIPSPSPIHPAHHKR
GP IIb/IIIa, sequence (P08514 891-1039 partner limits assumed): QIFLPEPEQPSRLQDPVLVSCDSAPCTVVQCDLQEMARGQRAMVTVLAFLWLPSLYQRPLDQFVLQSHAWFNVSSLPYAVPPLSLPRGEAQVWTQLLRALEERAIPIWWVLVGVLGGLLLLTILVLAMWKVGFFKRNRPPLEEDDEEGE
GP IIb/IIIa, sequence (P05106 27-788): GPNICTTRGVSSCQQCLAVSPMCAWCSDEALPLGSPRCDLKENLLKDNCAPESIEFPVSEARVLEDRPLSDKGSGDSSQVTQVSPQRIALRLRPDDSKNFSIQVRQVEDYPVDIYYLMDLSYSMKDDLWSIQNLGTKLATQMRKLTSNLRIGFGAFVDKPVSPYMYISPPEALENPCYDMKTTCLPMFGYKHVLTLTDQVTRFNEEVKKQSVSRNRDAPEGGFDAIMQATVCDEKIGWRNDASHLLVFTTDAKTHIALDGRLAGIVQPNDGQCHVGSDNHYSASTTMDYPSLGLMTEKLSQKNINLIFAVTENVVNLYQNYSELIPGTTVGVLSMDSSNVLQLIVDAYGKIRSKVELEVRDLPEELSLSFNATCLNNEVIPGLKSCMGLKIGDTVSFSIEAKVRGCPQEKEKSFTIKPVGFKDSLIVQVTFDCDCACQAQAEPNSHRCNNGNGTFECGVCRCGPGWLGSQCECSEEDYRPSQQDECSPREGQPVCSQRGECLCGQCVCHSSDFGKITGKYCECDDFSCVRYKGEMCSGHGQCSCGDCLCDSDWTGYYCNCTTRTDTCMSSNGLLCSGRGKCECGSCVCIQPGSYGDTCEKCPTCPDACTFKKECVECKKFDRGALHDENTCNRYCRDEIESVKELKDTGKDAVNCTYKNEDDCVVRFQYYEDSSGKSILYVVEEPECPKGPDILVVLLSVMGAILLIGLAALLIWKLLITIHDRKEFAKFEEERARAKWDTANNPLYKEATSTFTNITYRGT
T1 sequence (P06756 31-889 limits assumed): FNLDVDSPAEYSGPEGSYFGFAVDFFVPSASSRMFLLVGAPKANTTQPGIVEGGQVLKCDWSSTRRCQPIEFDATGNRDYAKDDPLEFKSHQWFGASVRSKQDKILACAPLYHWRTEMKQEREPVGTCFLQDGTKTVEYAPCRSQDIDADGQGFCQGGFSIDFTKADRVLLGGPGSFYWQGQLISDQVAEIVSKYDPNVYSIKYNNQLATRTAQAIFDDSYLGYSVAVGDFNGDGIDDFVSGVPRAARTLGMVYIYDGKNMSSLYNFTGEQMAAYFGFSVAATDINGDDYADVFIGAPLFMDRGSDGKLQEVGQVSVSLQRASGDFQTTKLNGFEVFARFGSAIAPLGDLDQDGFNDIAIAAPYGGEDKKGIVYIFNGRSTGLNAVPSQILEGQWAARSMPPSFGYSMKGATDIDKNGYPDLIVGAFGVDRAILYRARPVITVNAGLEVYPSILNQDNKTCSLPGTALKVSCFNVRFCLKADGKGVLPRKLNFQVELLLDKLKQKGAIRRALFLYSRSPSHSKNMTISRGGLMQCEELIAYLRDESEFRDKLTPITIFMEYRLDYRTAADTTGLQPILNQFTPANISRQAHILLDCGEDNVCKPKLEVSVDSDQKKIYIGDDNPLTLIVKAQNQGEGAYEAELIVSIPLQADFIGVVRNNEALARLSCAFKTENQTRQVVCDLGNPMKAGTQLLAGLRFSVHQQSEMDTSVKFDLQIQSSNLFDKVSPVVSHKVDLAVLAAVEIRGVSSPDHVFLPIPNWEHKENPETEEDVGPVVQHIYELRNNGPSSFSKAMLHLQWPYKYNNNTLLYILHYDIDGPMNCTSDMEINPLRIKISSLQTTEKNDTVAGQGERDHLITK
T1 sequence (P06756 891-1048 partner limits assumed): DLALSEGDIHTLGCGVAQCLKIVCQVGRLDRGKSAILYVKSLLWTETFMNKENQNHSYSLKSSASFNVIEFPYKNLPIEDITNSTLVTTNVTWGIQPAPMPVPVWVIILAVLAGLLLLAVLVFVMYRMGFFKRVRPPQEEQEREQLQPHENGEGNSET
T1 sequence (P05106 27-788): as the sequence (P05106 27-788) above

Regarding `O=C(NC[C@H](NS(=O)(=O)c1ccccc1)C(=O)O)c1ccc(N2CCC[C@H](N=C3NCCCN3)C2)cc1F` [Example 30, (2S)-Benzenesulfonylamino-3-[2-fluoro-4-{(3S)-(1,4,5,6-tetrahydropyrimidin-2-ylamino)piperidin-1-yl}benzoylamino]propionic acid], the IC50 is at most 1 nM in series [1] (setting [6]), at most 1.1 nM in series [2] and 13 nM in series [3].
With `O=C(NC[C@H](NS(=O)(=O)c1ccccc1)C(=O)O)c1ccc(N2CCCC(NC3=NCCCN3)C2)cc1` (stereo partly drawn) [Example 3, (2S)-Benzenesulfonylamino-3-[4-{3-(1,4,5,6-tetrahydropyrimidin-2-ylamino)piperidin-1-yl}benzoylamino]propionic acid], the values for the IC50 in series [1] (setting [7]) and in series [2] were at most 1 nM and at most 1.1 nM, respectively.
The like results for `O=C(NC[C@H](NS(=O)(=O)c1ccccc1)C(=O)O)c1ccc(N2CCC[C@H](NC3=NCCCN3)C2)c(F)c1F` [Example 19, (2S)-Benzenesulfonylamino-3-[2,3-difluoro-4-{(3S)-(1,4,5,6-tetrahydropyrimidin-2-ylamino)piperidin-1-yl}benzoylamino]propionic acid] were, in that order, at most 1 nM and at most 1.1 nM.
As for `O=C(NC[C@H](NS(=O)(=O)c1cccs1)C(=O)O)c1ccc(N2CCC[C@H](N=C3NCCCN3)C2)cc1` [Example 44, 3-[4-{(3S)-(1,4,5,6-Tetrahydropyrimidin-2-ylamino)piperidin-1-yl}benzoylamino]-(2S)-{(thiophene-2-sulfonyl)amino}propionic acid], the IC50 in series [1] (setting [6]) is at most 1 nM; in series [2], at most 1.1 nM.
As to `O=C(NC[C@H](NS(=O)(=O)c1ccccc1)C(=O)O)c1ccc(N2CCC[C@H](NC3=NCCCN3)C2)c(Cl)c1` [Example 22, (2S)-Benzenesulfonylamino-3-[3-chloro-4-{(3S)-(1,4,5,6-tetrahydropyrimidin-2-ylamino)piperidin-1-yl}benzoylamino]propionic acid], the IC50 in series [2] is at most 1.1 nM.
As to `O=C(NC[C@H](NS(=O)(=O)c1ccccc1)C(=O)O)c1ccc(N2CCC[C@H](N=C3NCCCN3)C2)cc1` [Example 25, (2S)-Benzenesulfonylamino-3-[4-{(3S)-(1,4,5,6-tetrahydropyrimidin-2-ylamino)piperidin-1-yl}benzoylamino]propionic acid], the results for the IC50 in series [1] (setting [6]), in series [2] and in series [4] were at most 1 nM, at most 1.1 nM and 56 nM, respectively.
Regarding `O=C(NC[C@H](NS(=O)(=O)c1ccccc1)C(=O)O)c1ccc(N2CCC[C@@H](NC3=NCCCN3)C2)c(F)c1` [Example 9, (2S)-Benzenesulfonylamino-3-[3-fluoro-4-{(3R)-(1,4,5,6-tetrahydropyrimidin-2-ylamino)piperidin1-yl}benzoylamino]propionic acid], the IC50 in series [2] is at most 1.1 nM.
Still for that read-out and setting: the value for `O=C(NC[C@H](NS(=O)(=O)c1ccccc1)C(=O)O)c1ccc(N2CCCC(Nc3ncccn3)C2)cc1` (stereo partly drawn) [Example 2, (2S)-Benzenesulfonylamino-3-[4-{3-(pyrimidin-2-ylamino)piperidin-1-yl}benzoylamino]propionic acid] was at most 1.1 nM.
For the compound `O=C(NC[C@H](NS(=O)(=O)c1ccccc1)C(=O)O)c1ccc(N2CCC[C@H](Nc3ccccn3)C2)cc1` [Example 27, (2S) -Benzenesulfonylamino-3-[4-{(3S)-(pyridin-2-ylamino)piperidin-1-yl}-benzoylamino]propionic acid], the IC50 in series [1] (setting [7]) is at most 1 nM; in series [2], at most 1.1 nM.
With `O=C(NC[C@H](NS(=O)(=O)c1ccccc1)C(=O)O)c1ccc(N2CCC[C@H](NC3=NCCCN3)C2)c(F)c1` [Example 6, (2S)-Benzenesulfonylamino-3-[3-fluoro-4-{(3S)-(1,4,5,6-tetrahydropyrimidin-2-ylamino)piperidin-1-yl}benzoylamino]propionic acid], the IC50 in series [2] is ≤ 1.1 nM and 1.1 nM.
Consider `O=C(NC[C@H](NS(=O)(=O)c1ccccc1)C(=O)O)c1ccc(N2CCC[C@H](Nc3ncccn3)C2)c(F)c1` [Example 5, (2S)-Benzenesulfonylamino-3-[3-fluoro-4-{(3S)-(pyrimidin-2-ylamino)piperidin-1-yl}benzoylamino]-propionic acid], for which, in series [5], the oral absorption result is “had oral absorption”.
